# Test system: ogt mRNA
# Test: ogt mRNA expression in HepG2 cells cultured with glucose, MGO and other sugars/aldehydes
# Assay type: cell-based
# Conditions: MGO, 24 hours
# Description: The HepG2 cells were cultured in a cell culture medium containing glucose, fructose, methylglyoxal (MGO), glyoxal (GO), glyceraldehyde 3-phosphate (G3P), glyceraldehyde, and glycolaldehyde for 24 hours, respectively, and the expression level of ogt mRNA was measured and shown in FIG. 5.
smiles,measurement,value
"CC(=O)C=O [MGO, methylglyoxal]",ogt mRNA expression compared to the control group,increased nearly twice

# From patent publication US20240024402A1, “COMPOSITION FOR IMPROVING INSULIN SENSITIVITY, CONTAINING GENTIANA TRIFLORAL PALLAS EXTRACT” (MTHERA PHARMA CO., LTD., priority 2020, published 2024)
